The text below walks through data of patent US20220007646A1, “METHOD TO CONTROL A PHYTHOPATOGENIC FUNGI SELECTED FROM UNCINULA NECATOR, PLASMOPARA VITICOLA AND GLOEOSPORIUM AMPELOPHAGUM IN GRAPES BY COMPOSITIONS COMPRISING MEFENTRIFLUCONAZOLE” (BASF AGRO B.V., priority 2018, published 2022).

One assay concerns Plasmopara viticola. In words: Green house: fungicidal control of grape downy mildew caused by Plasmopara viticola (PLASVI P4). It is filed as in vivo. To be noted: grape plants sprayed, inoculated after four days. On the procedure: Fungicidal Control of Grape Downy Mildew Caused by Plasmopara viticola […]4) Grape cuttings were grown in pots to the 4 to 5 leaf stage. These plants were sprayed to run-off with a spray solution, containing the concentration of active ingredient or their mixture mentioned in the table below. The plants were allowed to air-dry and cultivated in a greenhouse for four days. Then they were inoculated with an aqueous spore suspension of Plasmopara viticola by spraying it at the lower leaf-side. Then the trial plants were immediately transferred for 24 h to a humid chamber with 22-24° C. and a and a saturated relative humidity. For a period of 5 days, cultivation followed in a greenhouse at 20-25° C. and a relative humidity about 50-80%. To stimulate the outbreak of the disease symptoms, the plants were transferred to a humid chamber again for 24 hours. Then the extent of fungal attack on the lower leaf surface was visually assessed as % diseased leaf area. The disease ratings were converted into efficacies. […] The expected efficacies of active compound mixtures were determined using Colby's formula [R. S. Colby, “Calculating synergistic and antagonistic responses of herbicide combinations”, Weeds 15, 20-22 (1967)] and compared with the observed efficacies.

For another assay, the system named is Uncinula necator. The assay can be described thus: Green house: control of powdery mildew on grape caused by Uncinula necator (UNCINE P7). It is filed as in vivo. The note with it: grape plants sprayed, inoculated 7 days later, assessed after 22 days. On the procedure: Control of Powdery Mildew on Grape Caused by Uncinula necator ([…]7) Grape cuttings were grown in pots to the 4 to 5 leaf stage. These plants were sprayed to run-off with a spray solution, containing the concentration of active ingredient or their mixture mentioned in the table below. Seven days later the treated plants were inoculated with spores of Uncinula necator by shaking heavily infested stock plants over the treated pots. After cultivation in the greenhouse for 22 days at 21-23° C. and a relative humidity between 40 to 70% the extent of fungal attack on the leaves was visually assessed as % diseased leaf area. The disease ratings were converted into efficacies. […] The expected efficacies of active compound mixtures were determined using Colby's formula [R. S. Colby, “Calculating synergistic and antagonistic responses of herbicide combinations”, Weeds 15, 20-22 (1967)] and compared with the observed efficacies.

[1] abbreviates: application rate 5 g/ha, 0 = as untreated, 100 = not infected.

Turning to `CC(O)(Cn1cncn1)c1ccc(Oc2ccc(Cl)cc2)cc1C(F)(F)F` (centres unmarked) [I, mefentrifluconazole], the Observed efficacy in the assay with Plasmopara viticola (application rate 1 g/ha) is 2; in the assay on Plasmopara viticola (setting [1]), 1; in the assay on Uncinula necator (setting [1]) it was 72. Turning to `Cn1cc(C(=O)Nc2ccccc2-c2cc(F)c(F)c(F)c2)c(C(F)F)n1` [II-6, fluxapyroxad], in the assay with Uncinula necator (application rate 0.5 g/ha), the Observed efficacy was 52.

Consider `Cc1cc(C(F)(F)F)nn1CC(=O)N1CCC(c2nc(C3=NOC(c4c(F)cccc4F)C3)cs2)CC1` (centres unmarked) [II-9, oxathiapiprolin], for which the Observed efficacy in the assay with Plasmopara viticola (application rate 0.1 g/ha) came out at 18.
